Experimental data taken from ChEMBL document CHEMBL1201862, “PubChem BioAssay data set” (2004).
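Assay format: 96-well plates, 48-hour exposure. GI50: concentration for 50% inhibition of growth.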 Active and inactive are the calls of the source. No stated cut-off is given here; in the data, active = GI50 up to about 1.1 µM and inactive = higher.

Columns and labels:
Experiment in all cases: NCI tumour cell line growth inhibition, 48 h
[1] = test system: NCI-H460
[2] = test system: UACC-62
[3] = test system: U-251
[4] = test system: SK-MEL-2
[5] = test system: HCT-116
[6] = test system: SF-295
[7] = test system: EKVX
[8] = test system: SW-620
[9] = test system: CAKI-1
[10] = test system: SK-OV-3
[11] = test system: NCI-H23
[12] = test system: CCRF-CEM
[13] = test system: SF-268
[14] = test system: TK-10
[15] = test system: A498
[16] = test system: HCC 2998
[17] = test system: OVCAR-3
[18] = test system: HOP-92
[19] = test system: HT-29
[20] = test system: LOX IMVI
[21] = test system: RXF 631
[22] = test system: LXFL 529
[23] = test system: DLD-1
[24] = test system: RXF 393
[25] = test system: HOP-18
[26] = test system: K562
[27] = test system: SNB-75
[28] = test system: OVCAR-5
[29] = test system: UO-31
[30] = test system: A549
[31] = test system: HOP-62
[32] = test system: OVCAR-4
[33] = test system: SK-MEL-5
[34] = test system: SNB-19
[35] = test system: M19-MEL
[36] = test system: SNB-78
[37] = test system: HCT-15
[38] = test system: IGROV-1
[39] = test system: OVCAR-8
[40] = test system: XF498
[41] = test system: SN12C
[42] = test system: UACC-257
[43] = test system: NCI-H522
[44] = test system: NCI-H226
[45] = test system: HL-60
[46] = test system: ACHN
[47] = test system: KM-20L2
[48] = test system: DMS-273
[49] = test system: M14
[50] = test system: SK-MEL-28
[51] = test system: DMS-114
[52] = test system: 786-0
[53] = test system: Malme-3M
[54] = test system: COLO 205
[55] = test system: RPMI-8226
[56] = test system: SF-539
[57] = test system: MOLT-4
[58] = test system: KM12
[59] = test system: SR

Measured: GI50

CCOC(=O)CCn1[nH]c(=O)c(Cl)c(Cl)c1=O
> 100 µM: [37]
inactive: [1] > 100 µM | [2] > 100 µM | [3] > 100 µM | [4] > 100 µM | [5] > 100 µM | [6] > 100 µM | [7] > 100 µM | [8] > 100 µM | [9] > 100 µM | [10] > 100 µM | [11] > 100 µM | [12] > 100 µM | [13] > 100 µM | [14] > 100 µM | [15] > 100 µM | [16] > 100 µM | [17] > 100 µM | [18] > 100 µM | [19] > 100 µM | [20] > 100 µM | [21] > 100 µM | [22] > 100 µM | [23] > 100 µM | [24] > 100 µM | [25] > 100 µM | [26] > 100 µM | [27] > 100 µM | [28] > 100 µM | [29] > 100 µM | [30] > 100 µM | [31] > 100 µM | [32] > 100 µM | [33] > 100 µM | [34] > 100 µM | [35] > 100 µM | [36] > 100 µM | [38] > 100 µM | [39] > 100 µM | [40] > 100 µM | [41] > 100 µM | [42] > 100 µM | [43] > 100 µM | [44] > 100 µM | [45] > 100 µM | [46] > 100 µM | [47] > 100 µM | [48] > 100 µM | [49] > 100 µM | [50] > 100 µM | [51] > 100 µM | [52] > 100 µM | [53] > 100 µM | [54] > 100 µM

Sc1nnc(COc2ccc(Cl)cc2)o1
inactive: [1] > 100 µM | [2] > 100 µM | [3] > 100 µM | [5] > 100 µM | [6] > 100 µM | [7] > 100 µM | [8] 15.5 µM | [9] > 100 µM | [10] > 100 µM | [11] > 100 µM | [12] > 100 µM | [13] > 100 µM | [14] > 100 µM | [15] > 100 µM | [16] > 100 µM | [17] > 100 µM | [18] 84.3 µM | [19] > 100 µM | [21] > 100 µM | [22] > 100 µM | [23] > 100 µM | [25] > 100 µM | [26] > 100 µM | [27] > 100 µM | [28] > 100 µM | [29] > 100 µM | [55] > 100 µM | [30] > 100 µM | [31] > 100 µM | [32] > 100 µM | [33] > 100 µM | [34] > 100 µM | [35] > 100 µM | [36] > 100 µM | [38] > 100 µM | [39] > 100 µM | [41] > 100 µM | [56] > 100 µM | [42] > 100 µM | [43] > 100 µM | [44] > 100 µM | [57] > 100 µM | [45] > 100 µM | [46] > 100 µM | [47] > 100 µM | [48] > 100 µM | [49] > 100 µM | [50] > 100 µM | [51] > 100 µM | [52] > 100 µM | [58] > 100 µM | [53] > 100 µM | [54] > 100 µM
31.2 µM: [37]

CCOC(=O)C(C)OC(=O)c1ccc(C)cc1 (stereo not drawn)
inactive: [1] > 100 µM | [2] > 100 µM | [3] > 100 µM | [4] > 100 µM | [5] > 100 µM | [6] > 10 µM | [7] > 100 µM | [8] > 100 µM | [10] > 100 µM | [11] > 100 µM | [12] > 100 µM | [13] > 100 µM | [14] > 100 µM | [15] > 100 µM | [16] > 100 µM | [17] > 100 µM | [18] > 100 µM | [19] > 100 µM | [20] > 100 µM | [21] > 100 µM | [22] > 100 µM | [23] > 100 µM | [24] > 100 µM | [25] > 100 µM | [26] 64.1 µM | [27] > 100 µM | [28] > 100 µM | [29] > 100 µM | [30] > 100 µM | [33] > 100 µM | [34] > 100 µM | [35] > 100 µM | [36] > 100 µM | [38] > 100 µM | [39] > 100 µM | [40] 84.3 µM | [41] > 100 µM | [56] > 100 µM | [42] > 100 µM | [43] > 100 µM | [57] > 100 µM | [45] > 100 µM | [46] > 100 µM | [47] > 100 µM | [48] > 100 µM | [49] > 100 µM | [50] > 100 µM | [51] > 100 µM | [58] > 100 µM | [53] > 100 µM | [54] > 100 µM | [59] > 100 µM
> 100 µM: [37]

O=C(CCc1n[nH]c(=S)o1)Nc1ccc(Cl)cc1Cl
inactive: [1] > 100 µM | [2] > 100 µM | [3] > 100 µM | [5] 33.9 µM | [6] > 100 µM | [7] > 100 µM | [8] 15.5 µM | [9] > 100 µM | [10] > 100 µM | [11] > 100 µM | [12] 43.6 µM | [13] > 100 µM | [14] > 100 µM | [15] > 100 µM | [16] > 100 µM | [17] > 100 µM | [18] 68.7 µM | [19] 34.3 µM | [21] > 100 µM | [22] > 100 µM | [23] > 100 µM | [25] > 100 µM | [26] 38.7 µM | [27] > 100 µM | [28] > 100 µM | [29] > 100 µM | [55] 16.9 µM | [30] > 100 µM | [31] > 100 µM | [32] > 100 µM | [33] > 100 µM | [34] > 100 µM | [35] > 100 µM | [36] > 100 µM | [38] > 100 µM | [39] > 100 µM | [41] > 100 µM | [56] > 100 µM | [42] > 100 µM | [43] 61.8 µM | [44] > 100 µM | [57] > 100 µM | [45] 76.4 µM | [46] > 100 µM | [47] > 100 µM | [48] 30.8 µM | [49] > 100 µM | [50] > 100 µM | [51] > 100 µM | [52] > 100 µM | [58] > 100 µM | [53] > 100 µM | [54] > 100 µM
20.9 µM: [37]

COc1cc2c(c(OC)c1OC)-c1ccc(SC)c(=O)cc1[C@@H](NC(=O)c1ccc(OC(C)=O)cc1)CC2
active: [1] 0.0326 µM | [2] 0.0313 µM | [3] 0.0227 µM | [5] 0.0229 µM | [6] 0.0217 µM | [7] 0.0139 µM | [8] 0.029 µM | [10] 0.0241 µM | [11] 0.0212 µM | [12] 0.0329 µM | [13] 0.0306 µM | [14] 0.0454 µM | [15] 0.0227 µM | [16] 0.0218 µM | [17] 0.015 µM | [18] 0.00257 µM | [19] 0.0248 µM | [20] 0.0137 µM | [21] 0.0275 µM | [22] 0.0158 µM | [23] 0.0323 µM | [24] 0.018 µM | [26] 0.0301 µM | [27] 0.0332 µM | [29] 0.433 µM | [55] 0.0327 µM | [30] 0.01 µM | [31] 0.0419 µM | [32] 0.0675 µM | [35] 0.0265 µM | [36] 0.00451 µM | [38] 0.0319 µM | [39] 0.0313 µM | [40] 0.0169 µM | [41] 0.0324 µM | [56] 0.0169 µM | [42] 0.0349 µM | [43] 0.01 µM | [44] 0.0231 µM | [57] 0.0409 µM | [45] 0.0338 µM | [46] 0.0342 µM | [47] 0.0189 µM | [48] 0.01 µM | [49] 0.0215 µM | [50] 0.0553 µM | [52] 0.0409 µM | [58] 0.0198 µM | [53] 0.0238 µM | [54] 0.0194 µM
inactive: [9] 33.9 µM | [28] 24.7 µM
0.0229 µM: [37]
